Data on 5 substances can be found in US9023800B2, “Peptides for the treatment of oxidative stress related disorders” (Ramot at Tel-Aviv University Ltd., priority 2009, dated 2015).

For experiment [1], the system named is human neuroblastoma SH-SY5Y cells. In words: Serum deprivation in neuroblastoma cells. To be noted: during serum deprivation, vs saline (FIG. 4A). The class given is cell-based. Here is the method:
FIG. 4A is a bar graph illustrating that DJ-1-related peptides are protective against serum deprivation.
(§1) Human neuroblastoma SH-SY5Y cells are obtained from the American tissue Type Culture Collection (ATCC, Rockville, USA). Cells are grown under sterile conditions as monolayer in DMEM medium supplemented with 10% heat-inactivated fetal calf serum (FCS), gentamicin ([…]), and glutamine (5 mM) in a 5% CO2 humidified atmosphere at 37° C. The medium is routinely changed every 4 days, and cells are passaged every 8 days. All experiments are performed on cells which are near confluence.

Experiment [2] concerns neuronally differentiated murine neural stem cells. Description: Oxidative insult (H2O2) in neuronally differentiated neural stem cells. The experiment is classed as cell-based. The note with it: pretreated vs saline before exposure to hydrogen peroxide (FIG. 6). The protocol: Neural progenitor/stem cells are isolated from murine cortex of postnatal c57/bl mice and cultured as neurospheres. Neural and astroglial differentiation are induced.
Susceptibility of differentiated and undifferentiated neural progenitor/stem cells to oxidative and toxic insults are determined with and without prior pretreatment with DJ-1 related peptides.
Susceptibility of differentiated and undifferentiated neural progenitor/stem cells to oxidative and toxic insults was determined with and without prior pretreatment with DJ-1 related peptides, as illustrated in FIG. 6.

Experiment [3] relates to human neuroblastoma SH-SY5Y cells. In words: 6-hydroxydopamine toxicity in neuroblastoma cells. The experiment is classed as cell-based. Here is the method: Human neuroblastoma SH-SY5Y cells are obtained from the American tissue Type Culture Collection (ATCC, Rockville, USA). Cells are grown under sterile conditions as monolayer in DMEM medium supplemented with 10% heat-inactivated fetal calf serum (FCS), gentamicin ([…]), and glutamine (5 mM) in a 5% CO2 humidified atmosphere at 37° C. The medium is routinely changed every 4 days, and cells are passaged every 8 days. All experiments are performed on cells which are near confluence. […]
(§2) Cells are seeded in 96-wells plates at the concentration of 5000 cells per well and allowed to attach over night. […] Alamar blue fluorescence is measured by FLUOstar spectrofluorometer at the excitation wavelength of 544 nm and the emission wavelength of 590 nm. […]
(§3) LDH released by damaged cells into the cell culture supernatant is determined using LDH cytotoxicity detection kit (Clontech laboratories, CA, USA), according to the manufacturer's instructions. […] The percentage of dead cells is calculated by the following formula of the absorbance values: (triplicate absorbance−low control)/(maximum absorption−low control)×100.
Hoechst 33342 enters cells with intact or damaged membranes and stains DNA in blue, thereby allowing evaluation of cell number in each well as well. […] Excitation is performed at 346 nm and emission wavelength is determined at 460 nm. […]

For experiment [4], the system named is HaCaT cells. Description: Protection against UV radiation in keratinocytes. The experiment is classed as cell-based, human. To be noted: HaCaT pretreated vs saline before UV radiation (FIG. 14). Here is the method:
The immortalized human HaCaT keratinocyte cells are used to test DJ-1 related peptides ability to protect against UV radiation induced injury. Cells are maintained in minimal essential medium containing 0.075 mM Ca^2+ (MEM-75) and 10% FCS in 5 cm Petri-dishes and subcultured every 3-4 days.
Cultured keratinocytes were used to examine the ability of DJ-1 related peptides to protect against the damaging effects of UV radiation.

In experiment [5] the test system is primary mixed neuronal and glial cultures obtained from cortex of postnatal wild type C57/bl mice. In words: Hydrogen peroxide toxicity in primary cultures. The class given is cell-based. To be noted: increasing concentrations of hydrogen peroxide (FIGS. 5A-B). The protocol: (§4) Murine neuronal and astrocytes primary cultures derived from cortical tissues of post natal c57/bl mice are prepared and used in order to examine protective potential of DJ-1 related peptides.
(§5) T protective effects of DJ-1 peptides on primary cultures, and on differentiated and undifferentiated neural stem cells obtained from C57/bl mice brains were evaluated. […] Specifically, FIGS. 5A-B illustrate protection of Tat 2A against oxidative and toxic injuries in primary mixed neuronal and astrocytes cultures from post natal mice brains. Neural progenitor/stem cells were isolated from murine cortex of postnatal c57/bl mice and cultured as neuro spheres. Neural and astroglial differentiation were induced.

For experiment [6] the test system is unchanged. In words: 6-hydroxydopamine toxicity in primary cultures. The experiment is classed as cell-based. The note with it: increasing concentrations of 6-hydroxydopamine (FIGS. 5A-B). Here is the method:
as §4, §5

Experiment [7] has as its system 6-hydroxydopamine hemiparkinsonian mice model. Description: In vivo 6-hydroxydopamine induced hemiparkinsonian mice model.
In experiment [8] the test system is human neuroblastoma SH-SY5Y cells. In words: Hydrogen peroxide (H2O2) oxidative stress in neuroblastoma cells. The class given is cell-based. The protocol:
as §1
(§6) Neuroblastoma cells are contacted with hydrogen peroxide (H2O2) (0-1 mM; Sigma, Chemicals Co., St. Louis, Mo., USA), 6-hydroxydopamine (0-100 μM; Sigma, Chemicals Co., St. Louis, Mo., USA), dopamine (0-500 μM; Sigma, Chemicals Co., St. Louis, Mo., USA) and 3-(4-morpholinyl)-sydnonimine (SIN-I) (0-5 mM; Sigma), (which is a peroxynitrite free radical donor), in order to produce ROS formation.
Several methods are used in order to determine the toxic effects of oxidative insults, neurotoxins and dopamine on cellular metabolic activity, mitochondrial activity and cell viability.
as §2, §3
Hoechst 33342 enters cells with intact or damaged membranes and stains DNA in blue, thereby allowing evaluation of cell number in each well as well. A FLUOstar spectrofluorometer microplate reader may be used in order to evaluate the cell number in each well following exposure to different doses of various toxins. Excitation is performed at 346 nm and emission wavelength is determined at 460 nm. […]

The test system is the same in experiment [9]. In words: Cell proliferation by [3H]thymidine incorporation. The class given is cell-based. To be noted: exposure to the peptides (FIG. 1D). The protocol:
FIGS. 1A-F are bar graphs illustrating that DJ-1-related peptide TAT 2a (SEQ ID NO: 24) is protective in vitro against oxidative and toxic insults. […] Cell proliferation was measured by quantifying [^3H]thymidine incorporation. […] The presented experiments were done on human neuroblastoma SH-SY5Y cells, and repeated at least 3 times. *p<0.05, as compared to control cells treated with vehicle and exposed to the same toxic insult.
as §1
(In general: Uptake of a labelled nucleoside into DNA is a usual measure of proliferation.)

Experiment [10] has the same test system. Description: Dopamine toxicity in neuroblastoma cells. The experiment is classed as cell-based. The note with it: SH-SY5Y (FIG. 1F). The protocol: as §1, §6
Cells are seeded in 96-wells plates at the concentration of 5000 cells per well and allowed to attach over night. On the following day, the cells are exposed to increasing doses of dopamine (0-500 uM) for 4 hours in serum free medium. Alamar blue is a non toxic reagent which incorporates a redox indicator that changes color in response to metabolic activity. […] Alamar blue fluorescence is measured by FLUOstar spectrofluorometer at the excitation wavelength of 544 nm and the emission wavelength of 590 nm. […]

Experiment [11] deals with NSC-34 cells. Description: Hydrogen peroxide toxicity in cellular model of ALS. To be noted: NSC-34 pretreated vs saline before hydrogen peroxide (FIG. 12A). The experiment is classed as cell-based. The text has this:
(§7) NSC-34 cells were used as a cellular model for ALS. Increasing doses of hydrogen peroxide and SIN-I, an NO donor, which are implicated in the pathogenesis of ALS were used.

The test system of experiment [12] is neuroblastoma cells overexpressing A53T alpha-synuclein. In words: Hydrogen peroxide toxicity in cells overexpressing mutant alpha-synuclein. The experiment is classed as cell-based, human. The note with it: A53T alpha-synuclein cells exposed to hydrogen peroxide (FIG. 10). Here is the method:
The coding region of human wild-type or A53T mutant alpha-synuclein cDNA is subcloned into pcDNA3.1-plasmid (BD Biosciences, Clontech). In order to achieve overexpression of A53T mutant alpha-synuclein, SH-SY5Y neuroblastoma cells are stably transfected with the plasmid containing A53T mutant alpha-synuclein. Transfections are performed using the lipofectamine 2000 reagent (Invitrogen, Carlsbad, Calif.). Selection of transfected cells is performed by treating the cells with lethal doses of geniticin (G-418). Naive neuroblastoma cells as well as cells stably transfected with the empty vector are used as controls.
Stable transfections are verified by measuring alpha-synuclein mRNA and protein levels using real-time PCR and Western blotting.
A53T mutant alpha-synuclein is one of the causes for genetically inherited Parkinson's Disease. Neuroblastoma cells overexpressing mutated alpha-synuclein were used as a cellular platform for Parkinson's Disease. In order to achieve overexpression of A53T mutant alpha-synuclein, SH-SY5Y neuroblastoma cells were stably transfected with the plasmid containing A53T mutant alpha-synuclein.

Experiment [13] concerns NSC-34 cells. In words: SIN-I toxicity in cellular model of ALS. The experiment is classed as cell-based. The note with it: NSC-34 pretreated vs saline before SIN-I (FIG. 12B). Here is the method:
as §6, §7

Experiment [14] deals with MPTP Parkinson's model. In words: MPTP Parkinson's model in mice. The class given is in vivo. To be noted: subcutaneous 0.4 mM; MPTP 20 mg/kg i.p. 5 consecutive days; 18 days later (FIG. 17). The protocol: In order to generate an animal model for Parkinson's disease, mice were treated with 1-methyl-4-phenyl-1,2,3,6-tetrahydropyridine (MPTP). 5 mice (C57/bl) were injected for 5 consecutive days with 20 mg/kg MPTP (i.p.) in the presence and absence of the DJ-1 related peptide (0.4 mM subcutaneous; SEQ ID NO: 25). 18 days later, the mice were sacrificed and the dopamine level, in the two hemispheres was measured by HPLC.

GAEEME (Artificial seqence) [peptide I]: the viability entry in experiment [1] and in experiment [2] was “Increased viability” in each case.
As to “KGAEEMETVIPV (Artificial seqence) [short 2a]”, the viability result in experiment [1] is given as “Increased viability”.
As for “VDVMRRAGI (Artificial seqence) [peptide II]”, the viability entry in experiment [3] (SH-SY5Y pretreated vs saline before 6-hydroxydopamine (FIG. 3)), in experiment [1] and in experiment [2] was “Increased viability” each time. In addition, the metabolic activities entry in experiment [4] is reported as “Increased metabolic activities”.
“YGRKKRRKGAEEMETVIPVD (Artificial seqence) [TAT 2a]”: the “protection against 6-hydroxydopamine toxicity” value in experiment [3] (SH-SY5Y (FIG. 1E)) is on record as “Protection”; in experiment [6], “protection”. For the same substance, in experiment [5], the “protection against H2O2 toxicity” value is on record as “protection”. Moreover, the metabolic activities result in experiment [4] was “Increased metabolic activities”. The “fraction of the lesioned mice that rotated in response to amphetamine injection” value in [7] (50 μg IV 4 hours before 6-hydroxydopamine lesioning (FIG. 16B)) and in experiment [7] (intrastriatal 2 μl of 100 μM one hour before lesioning (FIG. 15B)) was “smaller fraction” in each case. For the same substance, the amphetamine-induced rotations entry in [7] (50 μg IV 4 hours before 6-hydroxydopamine lesioning, vs saline (FIG. 16A)) was “Significantly reduced”; in [7] (intrastriatal 2 μl of 100 μM one hour before lesioning, 2 and 4 weeks after lesioning, vs saline (FIG. 15A)), “Significantly reduced”. Besides, the “accelerating Rotarod examination” value in experiment [7] (intrastriatal peptide vs saline-treated controls, p=0.02) is “significant difference”. For the same substance, in [7] (intrastriatal peptide, immunohistochemical staining), the “6-hydroxydopamine-induced loss of tyrosine hydroxylase (TH) staining in the lesioned striatum” value is given as “reversed”. Moreover, the cell viability entry in experiment [8] (exposure to H2O2, vs saline alone (FIG. 1A)) is on record as “Increased cell viability”. Besides, the mitochondrial damage result in experiment [8] (exposure to H2O2, vs saline alone (FIG. 1B)) is “decreased mitochondrial damage”. Further, the metabolic activity entry in experiment [8] (exposure to H2O2, vs saline alone (FIG. 1C)) was “increased metabolic activity”. Moreover, the “cell proliferation ([3H]thymidine incorporation)” value in [9] is “no increased cell proliferation”. For the same substance, in experiment [10], the “protection against dopamine toxicity” value was “Protection”. Moreover, the viability result in experiment [11] is reported as “Increased viability”; in experiment [12], “Significantly increased viability”; in [13] it was “Increased viability”.
Turning to “YGRKKRRTVIPVDVMRRAGI (Artificial seqence) [TAT 2b]”, the viability entry in experiment [11] and in experiment [13] was “Increased viability” throughout. Besides, the “protection against MPTP Parkinson's model (dopamine level by HPLC)” value in experiment [14] was “protects”.
